Assay results as given in US20080108511A1, “GENES AND GENE PRODUCTS […] EXPRESSED DURING HEART FAILURE” (priority 2006, published 2008).
Marks after values point to notes of the source that are not given here.

Tested on: turkey poults
Details: in vivo
From the text: The values shown in Table 4 are the average values±the standard error. The values in parentheses indicate the number of hearts. CK is creatine kinase, LDH is lactate dehydrogenase, and AST is aspartate transaminase. Ca^2+-ATPase activity was normalized per gram of protein. * represents p<0.05.

ATP synthase: 87 ± 4* (4) IU/g
LDH: 219 ± 12* (9) IU/g
Myoglobin: 27.2 ± 3.1* (5) μg/g
SR Ca2+ cycling: Ca2+-ATPase: 3.4 ± 0.6* (4) IU/g
SR Ca2+ cycling: Ca2+-ATPase pump: 24.4 ± 6.3* (9) nM/s
Total ATPase: 16.8 ± 0.9* (4) IU/g
Total protein: 111 ± 3.0* (8) mg/g
myofibrillar protein content: 34.6 ± 2.5 mg/g
Structure (SMILES): O=C1OCCN1/N=C/c1ccc([N+](=O)[O-])o1 [Fz, furazolidone]
